Data taken from ChEMBL document CHEMBL1146248, “Cytotoxic small molecule dimers and their inhibitory activity against human breast cancer cells” (Bioorg Med Chem Lett, 2007).

Key:
MCF7 = assay: Antiproliferative activity against human estrogen receptor positive MCF7 cells after 72 hrs; type: functional, cell-based; conditions: MCF7, 72 h
SK-BR-3 = assay: Antiproliferative activity against human estrogen receptor negative SKBr3 cells overexpressing Her2 after 72 hrs; type: functional, cell-based; conditions: SK-BR-3, 72 h

Compound | IC50 (MCF7) [µM] | IC50 (SK-BR-3) [µM]
Cc1c(O)ccc2cc(NC(=O)c3cccc(C(=O)Nc4cc5ccc(O)c(C)c5oc4=O)c3)c(=O)oc12 | > 100 | > 100
Cc1cc(C(=O)Nc2cc(Cl)cc(Cl)c2)c(C)cc1C(=O)Nc1cc(Cl)cc(Cl)c1 | > 100 | > 100
O=C(Nc1cc(Cl)cc(Cl)c1)c1ccc(C(=O)Nc2cc(Cl)cc(Cl)c2)cc1 | > 100 | > 100
Cc1c(O)ccc2cc(NC(=O)c3ccnc(C(=O)Nc4cc5ccc(O)c(C)c5oc4=O)c3)c(=O)oc12 | > 100 | > 100
O=C(CCCCCCC(=O)Nc1cc(Cl)cc(Cl)c1)Nc1cc(Cl)cc(Cl)c1 | > 100 | > 100
O=C(Nc1ccc(F)c(F)c1)c1ccnc(C(=O)Nc2ccc(F)c(F)c2)c1 | > 100 | > 100
O=C(Nc1ccc(F)c(F)c1)c1cccc(C(=O)Nc2ccc(F)c(F)c2)c1 |  | > 100
O=C(Nc1cc(F)ccc1F)c1cccc(C(=O)Nc2cc(F)ccc2F)n1 | > 100 | > 100
O=C(Nc1cc(F)ccc1F)c1cccc(C(=O)Nc2cc(F)ccc2F)c1 | > 100 | > 100
O=C(Nc1cc(F)cc(F)c1)c1cccc(C(=O)Nc2cc(F)cc(F)c2)n1 | > 100 | > 100
COc1cc(NC(=O)c2cccc(C(=O)Nc3cc(OC)cc(OC)c3)n2)cc(OC)c1 | 52.1 | > 100
O=C(Nc1ccc2c(c1)OCCO2)c1ccc(C(=O)Nc2ccc3c(c2)OCCO3)nc1 | > 100 | > 100
O=C(NCc1ccc2c(c1)OCO2)c1ccc(C(=O)NCc2ccc3c(c2)OCO3)nc1 | > 100 | > 100
N#Cc1ccc(NC(=O)c2ccnc(C(=O)Nc3ccc(C#N)cc3)c2)cc1 | > 100 | > 100
O=C(Nc1cc(F)cc(F)c1)c1ccc(C(=O)Nc2cc(F)cc(F)c2)nc1 | > 100 | > 100
O=C(Nc1cc(F)ccc1F)c1ccc(C(=O)Nc2cc(F)ccc2F)nc1 | > 100 | > 100
Cc1c(O)ccc2cc(NC(=O)c3ccc(C(=O)Nc4cc5ccc(O)c(C)c5oc4=O)nc3)c(=O)oc12 | > 100 | > 100
O=C(Nc1ccc2ccccc2c1)c1ccc(C(=O)Nc2ccc3ccccc3c2)nc1 | > 100 | > 100
O=C(Nc1ccccc1F)c1ccc(C(=O)Nc2ccccc2F)nc1 | > 100 | > 100
O=C(Nc1ccccc1O)c1ccc(C(=O)Nc2ccccc2O)nc1 | > 100 | > 100
O=C(Nc1cc(F)cc(F)c1)c1ccnc(C(=O)Nc2cc(F)cc(F)c2)c1 | 14.7 | > 100
O=C(Nc1ccc(Cl)cc1O)c1ccc(C(=O)Nc2ccc(Cl)cc2O)nc1 | > 100 | > 100
O=C(Nc1ccc(O)cc1)c1ccc(C(=O)Nc2ccc(O)cc2)nc1 | > 100 | > 100

Compound | IC50 (MCF7) [µM] | IC50 (SK-BR-3) [µM]
COc1cc(NC(=O)c2ccnc(C(=O)Nc3cc(OC)cc(OC)c3)c2)cc(OC)c1 | > 100 | > 100
O=C(NCCc1ccc2c(c1)OCO2)c1ccc(C(=O)NCCc2ccc3c(c2)OCO3)nc1 | > 100 | > 100
O=C(Nc1ccc(F)c(F)c1)c1ccc(C(=O)Nc2ccc(F)c(F)c2)nc1 | > 100 | > 100
Cc1cc(C)cc(NC(=O)c2ccnc(C(=O)Nc3cc(C)cc(C)c3)c2)c1 | > 100 | > 100
O=C(Nc1cc(F)cc(F)c1)c1cccc(C(=O)Nc2cc(F)cc(F)c2)c1 | > 100 | > 100
COc1cc(NC(=O)c2cccc(C(=O)Nc3cc(OC)cc(OC)c3)c2)cc(OC)c1 | > 100 | > 100
O=C(Nc1ccc2c(c1)OCCO2)c1ccc(C(=O)Nc2ccc3c(c2)OCCO3)c([N+](=O)[O-])c1 | > 100 | > 100
O=C(Nc1cc(Cl)cc(Cl)c1)c1ccc(C(=O)Nc2cc(Cl)cc(Cl)c2)c2ccccc12 | > 100 | > 100
O=C(Nc1ccc2c(c1)OCCO2)c1cccc(C(=O)Nc2ccc3c(c2)OCCO3)n1 | 27.5 | > 100
O=C(Nc1ccc2c(c1)OCCO2)c1ccc(C(=O)Nc2ccc3c(c2)OCCO3)cc1 | > 100 | > 100
O=C(Nc1ccc2c(c1)OCCOCCOCCOCCO2)c1cccc(C(=O)Nc2ccc3c(c2)OCCOCCOCCOCCO3)c1 | > 100 | > 100
O=C(Nc1ccc2c(c1)OCO2)c1ccc(C(=O)Nc2ccc3c(c2)OCO3)nc1 | > 100 | > 100
O=C(NC1CCCCC1)c1ccc(C(=O)NC2CCCCC2)nc1 | > 100 | > 100
O=C(Nc1cc(F)ccc1F)c1ccnc(C(=O)Nc2cc(F)ccc2F)c1 | > 100 | > 100
Cc1cc(C)cc(NC(=O)c2cccc(C(=O)Nc3cc(C)cc(C)c3)n2)c1 | > 100 | > 100
O=C(Nc1ccc(F)c(F)c1)c1cccc(C(=O)Nc2ccc(F)c(F)c2)n1 | > 100 | > 100
O=C(Nc1ccc2ccccc2c1)c1ccnc(C(=O)Nc2ccc3ccccc3c2)c1 | 81.8 | > 100
O=C(Nc1ccc2c(c1)OCCO2)c1cnc(C(=O)Nc2ccc3c(c2)OCCO3)cn1 | > 100 | > 100
N#Cc1ccc(NC(=O)c2cccc(C(=O)Nc3ccc(C#N)cc3)c2)cc1 | > 100 | > 100
O=C(CCCCCCC(=O)Nc1ccc2c(c1)OCCO2)Nc1ccc2c(c1)OCCO2 | > 100 | > 100
O=C(Nc1ccc2c(c1)OCCO2)c1ccc(C(=O)Nc2ccc3c(c2)OCCO3)c2ccccc12 | > 100 | > 100
CO[C@H]1[C@H](OC(=O)c2ccc(C)[nH]2)[C@H](O)[C@@H](Oc2ccc3c(O)c(NC(=O)c4c[nH]c(C(=O)Nc5c(O)c6ccc(O[C@H]7OC(C)(C)[C@@H](OC)[C@H](OC(=O)c8ccc(C)[nH]8)[C@@H]7O)c(C)c6oc5=O)c4C)c(=O)oc3c2C)OC1(C)C [COUMERMYCIN A1] | 6.7 | 3.2

The next lines start with the values.

IC50 (MCF7) [µM] | IC50 (SK-BR-3) [µM] | Compound
> 100 | > 100 | Cc1cc(C(=O)Nc2ccc3c(c2)OCCO3)c(C)cc1C(=O)Nc1ccc2c(c1)OCCO2
56.5 | > 100 | O=C(Nc1cccc(Cl)c1)c1cccc(C(=O)Nc2cccc(Cl)c2)c1
> 100 | > 100 | O=C(Nc1ccccc1F)c1cccc(C(=O)Nc2ccccc2F)c1
> 100 | > 100 | O=C(Nc1ccc2c(c1)OCCO2)c1cc(Cl)c(C(=O)Nc2ccc3c(c2)OCCO3)cc1Cl
> 100 | > 100 | O=C(Nc1ccc2c(c1)OCCO2)c1cccc(C(=O)Nc2ccc3c(c2)OCCO3)c1
> 100 | > 100 | O=C(Nc1ccc2c(c1)OCCO2)c1ccnc(C(=O)Nc2ccc3c(c2)OCCO3)c1
4.2 | 10.5 | O=C(Nc1cc(Cl)cc(Cl)c1)c1ccnc(C(=O)Nc2cc(Cl)cc(Cl)c2)c1
> 100 | > 100 | O=C(Nc1cc(Cl)cc(Cl)c1)c1cc(Cl)c(C(=O)Nc2cc(Cl)cc(Cl)c2)cc1Cl
> 100 | > 100 | Cc1c(O)ccc2cc(NC(=O)c3cccc(C(=O)Nc4cc5ccc(O)c(C)c5oc4=O)n3)c(=O)oc12
7.2 | 4.5 | O=C(Nc1ccc2c(c1)OCCOCCOCCOCCO2)c1ccc(C(=O)Nc2ccc3c(c2)OCCOCCOCCOCCO3)nc1
4.6 | 15.2 | O=C(Nc1ccc2ccccc2c1)c1cccc(C(=O)Nc2ccc3ccccc3c2)c1
22.8 | 34.9 | COc1cc(NC(=O)c2ccc(C(=O)Nc3cc(OC)cc(OC)c3)nc2)cc(OC)c1
16.3 | 104 | Cc1cc(C)cc(NC(=O)c2ccc(C(=O)Nc3cc(C)cc(C)c3)nc2)c1
27.3 | 28.3 | O=C(Nc1cccc(Cl)c1)c1ccc(C(=O)Nc2cccc(Cl)c2)nc1
2.4 | 9 | O=C(Nc1cccc(Cl)c1)c1ccnc(C(=O)Nc2cccc(Cl)c2)c1
40.4 | 87.7 | O=C(Nc1ccccc1F)c1ccnc(C(=O)Nc2ccccc2F)c1
2.1 | 12.2 | Cc1cc(C)cc(NC(=O)c2cccc(C(=O)Nc3cc(C)cc(C)c3)c2)c1
10.2 | 16.3 | O=C(Nc1cc(Cl)cc(Cl)c1)c1cccc(C(=O)Nc2cc(Cl)cc(Cl)c2)n1
2.7 | 4.5 | O=C(Nc1cc(Cl)cc(Cl)c1)c1cccc(C(=O)Nc2cc(Cl)cc(Cl)c2)c1
4.1 | 2.3 | O=C(Nc1cc(Cl)cc(Cl)c1)c1ccc(C(=O)Nc2cc(Cl)cc(Cl)c2)nc1
